The data set can be described thus: active ingredient delivery in PhEur phosphate buffer of pH 6.8 in a USP dissolution tester. Type of data set: physicochemical. The following applies: versus pellets with microcrystalline cellulose (Example 5), EUDRAGIT RS coating, no matrix.

`CC(=O)[O-].[Na+]` [sodium acetate]: the “effect of the modulating substance in the core on active ingredient delivery” value (shortened to “effect of the modulating substance”) is “accelerating effect”.
Consider `O=C(O)CC(O)(CC(=O)O)C(=O)O` [citric acid], for which the “effect of the modulating substance” value was “accelerating effect”.
`O=C([O-])CCC(=O)[O-].[Na+].[Na+]` [sodium succinate]: the “effect of the modulating substance” value was “accelerating effect”.
Turning to `[Cl-].[Na+]` [sodium chloride], the “effect of the modulating substance” value is “reducing effect”.

These data come from patent US20070042045A1, “Multilayer dosage form comprising a matrix that influences release of a modulatory substance” (ROEHM GBMH & CO. KG, priority 2003, published 2007).
